Assay results as given in US11801242B2, “Compositions and methods for adjuvant cancer therapeutics” (DUKE UNIVERSITY, priority 2018, dated 2023).

How the values were obtained:
[1] = biological target: T1, chimeric REV1 CTD protein (Mus musculus, UniProt Q920Q2); experiment: Isothermal titration calorimetry; type: binding; conditions: 25° C.
T1 construct: the mouse REV1 CTD (F1150-T1249); His10-GB1 (TEV site) (N, cleaved yes); made in house; host or cells: E. coli BL21 Star (DE3)
T1 sequence (Q920Q2 1150-1249): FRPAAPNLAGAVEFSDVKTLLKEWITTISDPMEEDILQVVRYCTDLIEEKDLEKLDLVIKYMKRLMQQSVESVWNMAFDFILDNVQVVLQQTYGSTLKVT
Experimental: Isothermal titration calorimetry measurements were carried out using a MicroCal VP-ITC instrument at 25° C., with the chimeric REV1 CTD protein (300 μM) in the syringe and compound (15 μM) in the cell. Compounds were initially dissolved in 50% MPD. Protein and compound samples were diluted in a buffer containing 50 mM HEPES pH 7.5, 50 mM KCl, 2 mM TCEP, 2% DMSO and 0.1% MPD. Microcal Origin 7 software was used to analyze the data.

[2] = tested on: REV1 CTD-REV7 interaction; experiment: ELISA assay probing the REV1 CTD-REV7 interaction; type: binding, mouse; conditions: ratio of test compound IC50 to RE01 IC50
Experimental: The ELISA assay for probing the REV1 CTD-REV7 interaction was carried out by immobilizing 50 nM His8-tagged REV7/3 in 200 μL phosphate-buffered saline (PBS, Gibco) containing 0.2% BSA in a Ni-NTA coated 96-well plate (HisSorb, Qiagen) for 30 minutes. Unbound His8-tagged REV7/3 was removed by washing the wells four times with PBS containing 0.05% Tween-20. […] After incubation for 30 minutes, the wells were washed four times with PBS containing 0.05% Tween-20 to remove the unbound FLAG-tagged POL κ RIR-REV1 CTD. A solution of the anti-FLAG horseradish peroxidase (HRP)-conjugated antibody (Sigma-Aldrich) in PBS containing 0.2% BSA was then added to the wells. After incubating for 1 hour, the antibody was washed off four times with PBS containing 0.05% Tween-20. The 3,3′,5,5′-tetramethylbenzedine (TMB) substrate (SureBlue TMB, Seracare) was added to the wells. After incubation of 20-30 minutes, the reaction was quenched with 1 M HCl. A SpectraMax plate reader (Molecular Devices) was used to measure absorbance at 450 nm.

A375 cells = experiment: qRT-PCR of p21 mRNA; type: cell-based, human; conditions: cisplatin 1 μM alone
Experimental: Total RNA was isolated by using the RNeasy Mini kit (Qiagen) from cells treated with RE01 (1.5 μM), cisplatin (1 μM) and a combination of both RE01 (1.5 μM) and cisplatin (1 μM). 5 ng of RNA from each sample was mixed with 10 μl of Applied Biosystems™ PowerUp™ SYBR™ Green Master Mix (ThermoFisher), 1 μl of MultiScribe™ Reverse Transcriptase (ThermoFisher), 0.1 μl of RNaseOUT™ Recombinant Ribonuclease Inhibitor and 5.9 μl of RNase-free water, and run in a one-step qRT-PCR reaction. Each reaction was run in triplicate. Primers used were: p21 F 5′-[…]-3′ (SEQ ID NO: 9), p21 R 5-CGGCGTTTGGAGTGG TAGAAA-3′ (SEQ ID NO: 10); GAPDH F 5′-[…]-3′ (SEQ ID NO: 11), GAPDH R 5′-[…]-3′ (SEQ ID NO: 12).

SMILES | Relative IC50 Ratio [2] | also measured
CC(C)CC(=O)c1c(N2CCOCC2)[nH]c2c(Cl)ccc([N+](=O)[O-])c2c1=O [RE07, 8-chloro-3-(3-methylbutanoyl)-2-morpholino-5-nitroquinolin-4(1H)-one] |  | REV1 CTD binding [1]: abolished the REV1 CTD binding
CC(C)CC(=O)c1c(Nc2ccc(Cl)cc2Cl)[nH]c2ccccc2c1=O [RE28, 2-((2,4-dichlorophenyl)amino)-3-(3-methylbutanoyl)quinolin-4(1H)-one] | A (A represents a ratio of test compound IC50 to RE01 IC50 of less than 0.8) | 
COc1ccc(Cl)c2[nH]c(Nc3ccc(Cl)cc3Cl)c(C(=O)CC(C)C)c(=O)c12 [RE29, 8-chloro-2-((2,4-dichlorophenyl)amino)-5-methoxy-3-(3-methylbutanoyl)quinolin-4(1H)-one] | A (A represents a ratio of test compound IC50 to RE01 IC50 of less than 0.8) | 
CC(C)CC(=O)c1c(Nc2ccc(Cl)cc2Cl)[nH]c2c(Cl)ccc(O)c2c1=O [RE30, 8-chloro-2-((2,4-dichlorophenyl)amino)-5-hydroxy-3-(3-methylbutanoyl)quinolin-4(1H)-one] | C (C represents a ratio of test compound IC50 to RE01 IC50 between 1.5-10) | 
CC(C)CC(=O)c1c(Nc2ccc(Cl)c(Cl)c2)[nH]c2c(Cl)ccc([N+](=O)[O-])c2c1=O [RE31, 8-chloro-2-((3,4-dichlorophenyl)amino)-3-(3-methylbutanoyl)-5-nitroquinolin-4(1H)-one] | C (C represents a ratio of test compound IC50 to RE01 IC50 between 1.5-10) | 
CC(C)CC(=O)c1c(Nc2c(F)cc(F)cc2F)[nH]c2c(Cl)ccc([N+](=O)[O-])c2c1=O [RE33, 8-chloro-3-(3-methylbutanoyl)-5-nitro-2-((2,4,6-trifluorophenyl)amino)quinolin-4(1H)-one] | C (C represents a ratio of test compound IC50 to RE01 IC50 between 1.5-10) | 
CC(C)CC(=O)c1c(Nc2ccc(Cl)cc2Cl)[nH]c2c(Cl)cc([N+](=O)[O-])cc2c1=O [RE34, 8-chloro-2-((2,4-dichlorophenyl)amino)-3-(3-methylbutanoyl)-6-nitroquinolin-4(1H)-one] | A (A represents a ratio of test compound IC50 to RE01 IC50 of less than 0.8) | 
CC(C)CC(=O)c1c(Nc2ccc(Cl)cc2Cl)[nH]c2cc([N+](=O)[O-])ccc2c1=O [RE35, 2-((2,4-dichlorophenyl)amino)-3-(3-methylbutanoyl)-7-nitroquinolin-4(1H)-one] | A (A represents a ratio of test compound IC50 to RE01 IC50 of less than 0.8) | 
Cc1ccc([N+](=O)[O-])c2c(=O)c(C(=O)CC(C)C)c(Nc3ccc(Cl)cc3Cl)[nH]c12 [RE36, 2-((2,4-dichlorophenyl)amino)-8-methyl-3-(3-methylbutanoyl)-5-nitroquinolin-4(1H)-one] | C (C represents a ratio of test compound IC50 to RE01 IC50 between 1.5-10) | 
COc1ccc([N+](=O)[O-])c2c(=O)c(C(=O)CC(C)C)c(Nc3ccc(Cl)cc3Cl)[nH]c12 [RE37, 2-((2,4-dichlorophenyl)amino)-8-methoxy-3-(3-methylbutanoyl)-5-nitroquinolin-4(1H)-one] | C (C represents a ratio of test compound IC50 to RE01 IC50 between 1.5-10) | 
CC(C)CC(=O)c1c(Nc2ccc(Cl)cc2Cl)[nH]c2c(F)ccc([N+](=O)[O-])c2c1=O [RE38, 2-((2,4-dichlorophenyl)amino)-8-fluoro-3-(3-methylbutanoyl)-5-nitroquinolin-4(1H)-one] | B (B represents a ratio of test compound IC50 so to RE1 IC50 between 0.8 and 1.5) | 
CC(C)CC(=O)c1c(Nc2ccc(Cl)cc2Cl)[nH]c2c(Br)ccc([N+](=O)[O-])c2c1=O [RE39, 8-bromo-2-((2,4-dichlorophenyl)amino)-3-(3-methylbutanoyl)-5-nitroquinolin-4(1H)-one] | B (B represents a ratio of test compound IC50 so to RE1 IC50 between 0.8 and 1.5) | 
N.N.[Cl][Pt][Cl] [cisplatin, cis-diammineplatinum(II) dichloride, reference compound] |  | levels of the p21 biomarker (A375 cells): elevated levels
